Test results as given in patent US8440710B2, “HSL inhibitors useful in the treatment of diabetes” (Hoffmann-La Roche Inc., priority 2009, dated 2013).

The compounds below were run against T1, human HSL (Homo sapiens, UniProt Q05469) (assay: Human Hormone-Sensitive Lipase (HSL) enzyme inhibition assay (colorimetric, DMPT substrate)). Conditions: human full length HSL-His6, 2,3-dimercapto-1-propanol tributyrate substrate, 37° C. 20 minutes, absorbance at 405 nm; read-out: HSL hum IC50.
T1 construct: generate a full length human HSL ORF with a 3′-His6 tag; made in house; host or cells: High 5 insect cells (baculovirus, pFast-BAC)
T1 sequence (Q05469 1-1076): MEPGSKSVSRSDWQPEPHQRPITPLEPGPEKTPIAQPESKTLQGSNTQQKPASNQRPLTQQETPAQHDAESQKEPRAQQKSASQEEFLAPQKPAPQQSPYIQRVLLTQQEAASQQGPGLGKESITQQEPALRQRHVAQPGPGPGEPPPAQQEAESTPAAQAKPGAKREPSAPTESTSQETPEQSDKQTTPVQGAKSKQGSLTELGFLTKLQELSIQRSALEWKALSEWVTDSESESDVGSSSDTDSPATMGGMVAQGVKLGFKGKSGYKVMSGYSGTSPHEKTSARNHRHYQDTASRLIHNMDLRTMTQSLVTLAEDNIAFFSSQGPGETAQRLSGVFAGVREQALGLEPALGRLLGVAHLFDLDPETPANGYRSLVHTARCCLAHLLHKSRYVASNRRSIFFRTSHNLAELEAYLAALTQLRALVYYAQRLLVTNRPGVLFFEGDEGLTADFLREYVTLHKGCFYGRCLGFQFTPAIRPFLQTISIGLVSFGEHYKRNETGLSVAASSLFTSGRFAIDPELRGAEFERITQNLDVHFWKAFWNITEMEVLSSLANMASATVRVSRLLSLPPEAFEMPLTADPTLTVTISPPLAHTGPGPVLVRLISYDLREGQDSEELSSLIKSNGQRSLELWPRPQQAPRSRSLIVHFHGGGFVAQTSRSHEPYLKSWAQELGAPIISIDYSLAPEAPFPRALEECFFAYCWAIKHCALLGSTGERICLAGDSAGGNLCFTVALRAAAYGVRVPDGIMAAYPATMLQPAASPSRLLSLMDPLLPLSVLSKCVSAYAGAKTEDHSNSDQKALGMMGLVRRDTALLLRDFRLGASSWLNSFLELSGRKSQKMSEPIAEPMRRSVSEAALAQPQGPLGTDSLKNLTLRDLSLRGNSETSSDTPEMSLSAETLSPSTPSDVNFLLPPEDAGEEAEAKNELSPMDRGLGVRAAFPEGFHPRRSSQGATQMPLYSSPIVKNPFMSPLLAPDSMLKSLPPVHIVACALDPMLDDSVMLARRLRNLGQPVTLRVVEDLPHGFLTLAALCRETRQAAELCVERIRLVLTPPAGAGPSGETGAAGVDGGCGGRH
Type: biochemical
In short: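 Full-length human HSL with C-terminal His6, expressed in baculovirus-infected High 5 cells and Ni-NTA purified, was added (15 ug/ml stock) to 1.5 mM DMPT in 100 mM MOPS pH 7.2, 0.2 mg/ml fatty acid-free BSA containing compound. After 20 min at 37 °C, DTNB with SDS/Triton X-100 was added; A405 read after 15 min at RT.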
An IC50 of 20 nM was found for `O=C1N(c2ccc(OCC(F)(F)F)cc2)CC[C@]12CC[C@@](O)(COc1ccc(F)cc1)CC2` [Example 263, (5α,8α)-8-(4-Fluoro-phenoxymethyl)-8-hydroxy-2-[4-(2,2,2-trifluoro-ethoxy)-phenyl]-2-aza-spiro[4.5]decan-1-one] in this work.
An IC50 of 60 nM was found for `CCCC[C@]1(O)CC[C@]2(CCN(c3ccc(OCCOC)cc3)C2=O)CC1` [Example 96, (5α,8α)-8-Butyl-8-hydroxy-2-[4-(2-methoxy-ethoxy)-phenyl]-2-aza-spiro[4.5]decan-1-one] in this work.
An IC50 of 20 nM was found for `O=C1N(c2ccc(OCC(F)(F)F)cc2)CC[C@]12CC[C@@](O)(COCC1CCCC1)CC2` [Example 273, (5α,8α)-8-[(Cyclopentylmethoxy)methyl]-8-hydroxy-2-[4-(2,2,2-trifluoro-ethoxy)-phenyl]-2-aza-spiro[4.5]decan-1-one] in this work.
An IC50 of 7 nM was found for `CC(C)CS(=O)(=O)C[C@]1(O)CC[C@]2(CCN(c3ccc(C(C)(C)C)cc3)C2=O)CC1` [Example 332, (5α,8α)-2-(4-tert-Butyl-phenyl)-8-hydroxy-8-(2-methyl-propane-1-sulfonylmethyl)-2-aza-spiro[4.5]decan-1-one] in this work.
An IC50 of 30 nM was found for `CCOC[C@]1(O)CC[C@]2(CCN(c3ccc(C4CC4)cc3)C2=O)CC1` [Example 271, (5α,8α)-2-(4-Cyclopropyl-phenyl)-8-ethoxymethyl-8-hydroxy-2-aza-spiro[4.5]decan-1-one] in this work.
An IC50 of 10 nM was found for `O=C1N(c2ccc(OCC(F)(F)F)cc2)CC[C@]12CC[C@@](O)(COCc1ccccc1)CC2` [Example 242, (5α,8α)-8-Benzyloxymethyl-8-hydroxy-2-[4-(2,2,2-trifluoro-ethoxy)-phenyl]-2-aza-spiro[4.5]decan-1-one] in this work.
An IC50 of 80 nM was found for `O=C1CCCN1C[C@]1(O)CC[C@]2(CCN(c3ccc(OCC(F)(F)F)cc3)C2=O)CC1` [Example 367, (5α,8α)-8-Hydroxy-8-(2-oxo-pyrrolidin-1-ylmethyl)-2-[4-(2,2,2-trifluoro-ethoxy)-phenyl]-2-aza-spiro[4.5]decan-1-one] in this work.
An IC50 of 6000 nM was found for `O=C1N(CCc2ccc(F)cc2)CC[C@]12CC[C@H](O)CC2` [Example 33, (5α,8α)-2-[2-(4-Fluoro-phenyl)-ethyl]-8-hydroxy-2-aza-spiro[4.5]decan-1-one] in this work.
An IC50 of 100 nM was found for `O=C1N(c2ccc(OC(F)(F)F)cc2)CC[C@]12CC[C@@H](Oc1ncccn1)CC2` [Example 20, (5α,8β)-8-(Pyrimidin-2-yloxy)-2-(4-trifluoromethoxy-phenyl)-2-aza-spiro[4.5]decan-1-one] in this work.
An IC50 of 30 nM was found for `C[C@@H](Oc1ccc(N2CC[C@]3(CC[C@@](O)(C4CC4)CC3)C2=O)cn1)C(F)(F)F` [Example 179, (5α,8α)-8-Cyclopropyl-8-hydroxy-2-[6-((R)-2,2,2-trifluoro-1-methyl-ethoxy)-pyridin-3-yl]-2-aza-spiro[4.5]decan-1-one] in this work.
An IC50 of 30 nM was found for `CCC[C@]1(O)CC[C@]2(CCN(c3ccc(OS(=O)(=O)C4CC4)cc3)C2=O)CC1` [Example 182, 4-((5α,8α)-8-hydroxy-1-oxo-8-propyl-2-aza-spiro[4.5]decan-2-yl)phenyl cyclopropanesulfonate] in this work.
An IC50 of 200 nM was found for `CCc1ccc(N2CC[C@]3(CC[C@](O)(COCC(F)F)CC3)C2=O)cc1` [Example 264, (5α,8β)-8-(2,2-Difluoro-ethoxymethyl)-2-(4-ethyl-phenyl)-8-hydroxy-2-aza-spiro[4.5]decan-1-one] in this work.
An IC50 of 30 nM was found for `CC[C@]1(O)CC[C@]2(CCN(c3ccc(O[C@H](C)C(F)(F)F)cc3)C2=O)CC1` [Example 165b, (5α,8α)-8-Ethyl-8-hydroxy-2-[4-((R)-2,2,2-trifluoro-1-methyl-ethoxy)-phenyl]-2-aza-spiro[4.5]decan-1-one] in this work.
An IC50 of 10 nM was found for `CC(C)(C)c1ccc(N2CC[C@]3(CC[C@@](O)(CN4CCCC4=O)CC3)C2=O)cc1` [Example 350, (5α,8α)-2-(4-tert-Butyl-phenyl)-8-hydroxy-8-(2-oxo-pyrrolidin-1-ylmethyl)-2-aza-spiro[4.5]decan-1-one] in this work.
An IC50 of 30 nM was found for `CC[C@]1(O)CC[C@]2(CCN(c3ccc(CC(F)(F)F)cc3)C2=O)CC1` [Example 79, (5α,8α)-8-Ethyl-8-hydroxy-2-[4-(2,2,2-trifluoro-ethyl)-phenyl]-2-aza-spiro[4.5]decan-1-one] in this work.
An IC50 of 20 nM was found for `CCOC[C@]1(O)CC[C@]2(CCN(c3ccc(O[C@@H](C)C(F)(F)F)nc3)C2=O)CC1` [Example 249, (5α,8α)-8-Ethoxymethyl-8-hydroxy-2-[6-((S)-2,2,2-trifluoro-1-methyl-ethoxy)-pyridin-3-yl]-2-aza-spiro[4.5]decan-1-one] in this work.
An IC50 of 40 nM was found for `C[C@@H](Oc1ccc(N2CC[C@]3(CC[C@@](O)(C(F)(F)F)CC3)C2=O)cc1)C(F)(F)F` [Example 177b, (5α,8α)-8-Hydroxy-8-trifluoromethyl-2-[4-((R)-2,2,2-trifluoro-1-methyl-ethoxy)-phenyl]-2-aza-spiro[4.5]decan-1-one] in this work.
An IC50 of 10 nM was found for `CC(C)Oc1ccc(N2CC[C@]3(CC[C@@](O)(c4ccccc4)CC3)C2=O)cc1` [Example 206, (5α,8α)-8-hydroxy-2-(4-isopropoxyphenyl)-8-phenyl-2-aza-spiro[4.5]decan-1-one] in this work.
An IC50 of 420 nM was found for `COCCc1ccc(N2CC[C@]3(CC[C@@](O)(C(F)(F)F)CC3)C2=O)cc1` [Example 123, (5α,8α)-8-Hydroxy-2-[4-(2-methoxy-ethyl)-phenyl]-8-trifluoromethyl-2-aza-spiro[4.5]decan-1-one] in this work.
An IC50 of 10 nM was found for `CC(C)Oc1ccc(N2CC[C@]3(CC[C@@](O)(c4ccsc4)CC3)C2=O)cc1` [Example 211, (5α,8α)-8-hydroxy-2-(4-isopropoxyphenyl)-8-(thiophen-3-yl)-2-aza-spiro[4.5]decan-1-one] in this work.
An IC50 of 190 nM was found for `CCC[C@]1(O)CC[C@@]2(CCN(c3ccc(C4CC4)cc3)C2=O)CC1` [Example 76, (5α,8β)-2-(4-Cyclopropyl-phenyl)-8-hydroxy-8-propyl-2-aza-spiro[4.5]decan-1-one] in this work.
An IC50 of 50 nM was found for `COCCCc1ccc(N2CC[C@]3(CC[C@@](O)(C(C)C)CC3)C2=O)cc1` [Example 130, (5α,8α)-8-Hydroxy-8-isopropyl-2-(4-(3-methoxypropyl)phenyl)-2-aza-spiro[4.5]decan-1-one] in this work.
An IC50 of 100 nM was found for `COC[C@]1(O)CC[C@]2(CCN(c3ccc(C(F)(F)F)cc3)C2=O)CC1` [Example 121, (5α,8α)-8-Hydroxy-8-methoxymethyl-2-(4-trifluoromethyl-phenyl)-2-aza-spiro[4.5]decan-1-one] in this work.
An IC50 of 20 nM was found for `CSC[C@]1(O)CC[C@]2(CCN(c3ccc(OCC(F)(F)F)cc3)C2=O)CC1` [Example 293, (5α,8α)-8-Hydroxy-8-methylsulfanylmethyl-2-[4-(2,2,2-trifluoro-ethoxy)-phenyl]-2-aza-spiro[4.5]decan-1-one] in this work.
An IC50 of 100 nM was found for `COCC[C@]1(OC)CC[C@]2(CCN(c3ccc(OC(F)(F)F)cc3)C2=O)CC1` [Example 120, (5α,8α)-8-Methoxy-8-(2-methoxy-ethyl)-2-(4-trifluoromethoxy-phenyl)-2-aza-spiro[4.5]decan-1-one] in this work.
An IC50 of 240 nM was found for `CCc1ccc(N2CC[C@]3(CC[C@@H](OCc4ccccc4)CC3)C2=O)cc1` [Example 4, (5α,8β)-8-Benzyloxy-2-(4-ethyl-phenyl)-2-aza-spiro[4.5]decan-1-one] in this work.
An IC50 of 20 nM was found for `CC[C@]1(O)CC[C@]2(CCN(c3ccc(OC(C)C(F)(F)F)cc3)C2=O)CC1` (stereo partly drawn) [Example 165, (5α,8α)-8-Ethyl-8-hydroxy-2-[4-(2,2,2-trifluoro-1-methyl-ethoxy)-phenyl]-2-aza-spiro[4.5]decan-1-one] in this work.
An IC50 of 50 nM was found for `Cn1nnc(Br)c1[C@]1(O)CC[C@]2(CCN(c3ccc(C(F)(F)F)cc3)C2=O)CC1` [Example 214, (5α,8α)-8-(5-Bromo-3-methyl-3H-[1,2,3]triazol-4-yl)-8-hydroxy-2-(4-trifluoromethyl-phenyl)-2-aza-spiro[4.5]decan-1-one] in this work.
An IC50 of 270 nM was found for `CCc1ccc(N2CC[C@]3(CC[C@@H](OC(=O)Nc4ccccc4)CC3)C2=O)cc1` [Example 8, Phenyl-carbamic acid [(5α,8β)-2-(4-ethyl-phenyl)-1-oxo-2-aza-spiro[4.5]dec-8-yl]ester] in this work.
An IC50 of 210 nM was found for `CCCc1ccc(N2CC[C@]3(CC[C@H](O)CC3)C2=O)cc1` [Example 37, (5α,8α)-8-Hydroxy-2-(4-propyl-phenyl)-2-aza-spiro[4.5]decan-1-one] in this work.
